Measurements reported in PubChem BioAssay (NCI).
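Five compound concentrations were applied to cells in 96-well plates for 48 hours; endpoints were derived by simple linear interpolation of the resulting dose-response curve. At the TGI there is no net growth.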

Experiments:
Assay in all cases: DTP human tumour cell line panel, 48 h
BT-549 breast = test system: BT-549 breast
SK-MEL-28 melanoma = test system: SK-MEL-28 melanoma
COLO 205 colon = test system: COLO 205 colon
NCI-H460 lung = test system: NCI-H460 lung
MOLT-4 leukemia = test system: MOLT-4 leukemia
U251 CNS = test system: U251 CNS
HCT-116 colon = test system: HCT-116 colon
CCRF-CEM leukemia = test system: CCRF-CEM leukemia
NCI/ADR-RES ovarian = test system: NCI/ADR-RES ovarian
LOX IMVI melanoma = test system: LOX IMVI melanoma
MCF7 breast = test system: MCF7 breast
OVCAR-8 ovarian = test system: OVCAR-8 ovarian
RPMI-8226 leukemia = test system: RPMI-8226 leukemia
DU-145 prostate = test system: DU-145 prostate
T-47D breast = test system: T-47D breast
SK-OV-3 ovarian = test system: SK-OV-3 ovarian
SF-539 CNS = test system: SF-539 CNS
NCI-H226 lung = test system: NCI-H226 lung
SF-268 CNS = test system: SF-268 CNS
NCI-H23 lung = test system: NCI-H23 lung
EKVX NSCLC = test system: EKVX NSCLC
HOP-62 NSCLC = test system: HOP-62 NSCLC
A498 renal = test system: A498 renal
UACC-257 melanoma = test system: UACC-257 melanoma
786-0 renal = test system: 786-0 renal
K-562 leukemia = test system: K-562 leukemia
MDA-N = test system: MDA-N
M14 melanoma = test system: M14 melanoma
OVCAR-4 ovarian = test system: OVCAR-4 ovarian
SW-620 colon = test system: SW-620 colon
HCC-2998 colon = test system: HCC-2998 colon
SNB-19 CNS = test system: SNB-19 CNS
SF-295 CNS = test system: SF-295 CNS
CAKI-1 renal = test system: CAKI-1 renal
SN12C renal = test system: SN12C renal
TK-10 renal = test system: TK-10 renal
HCT-15 colon = test system: HCT-15 colon
OVCAR-5 ovarian = test system: OVCAR-5 ovarian
NCI-H522 lung = test system: NCI-H522 lung
RXF 393 renal = test system: RXF 393 renal
HOP-92 NSCLC = test system: HOP-92 NSCLC
HS 578T breast = test system: HS 578T breast
IGROV1 ovarian = test system: IGROV1 ovarian
SNB-75 CNS = test system: SNB-75 CNS
MDA-MB-231 breast = test system: MDA-MB-231 breast
SK-MEL-5 melanoma = test system: SK-MEL-5 melanoma
OVCAR-3 ovarian = test system: OVCAR-3 ovarian
MALME-3M melanoma = test system: MALME-3M melanoma
SK-MEL-2 melanoma = test system: SK-MEL-2 melanoma
ACHN renal = test system: ACHN renal
A549 NSCLC = test system: A549 NSCLC
HL-60(TB) leukemia = test system: HL-60(TB) leukemia
SR leukemia = test system: SR leukemia
UACC-62 melanoma = test system: UACC-62 melanoma
MDA-MB-435 = test system: MDA-MB-435
UO-31 renal = test system: UO-31 renal
HT29 colon = test system: HT29 colon
PC-3 prostate = test system: PC-3 prostate
KM12 colon = test system: KM12 colon

Question: What does the source list for `COc1cc(-c2cc(=O)c3c(OC)c(OC)c(OC)c(OC)c3o2)cc(OC)c1OC`?
Answer: TGI (BT-549 breast): > 100 µM; TGI (SK-MEL-28 melanoma): > 100 µM; TGI (COLO 205 colon): 40 µM; TGI (NCI-H460 lung): > 100 µM; TGI (MOLT-4 leukemia): > 100 µM; TGI (U251 CNS): > 100 µM; TGI (HCT-116 colon): > 100 µM; TGI (CCRF-CEM leukemia): > 100 µM; TGI (NCI/ADR-RES ovarian): 84 µM; TGI (LOX IMVI melanoma): 83.1 µM; TGI (MCF7 breast): > 100 µM; TGI (OVCAR-8 ovarian): > 100 µM; TGI (RPMI-8226 leukemia): > 100 µM; TGI (DU-145 prostate): > 100 µM; TGI (T-47D breast): 70.5 µM; TGI (SK-OV-3 ovarian): > 100 µM; TGI (SF-539 CNS): > 100 µM; TGI (NCI-H226 lung): > 100 µM; TGI (SF-268 CNS): > 100 µM; TGI (NCI-H23 lung): > 100 µM; TGI (EKVX NSCLC): > 100 µM; TGI (HOP-62 NSCLC): > 100 µM; TGI (A498 renal): 85.2 µM; TGI (UACC-257 melanoma): > 100 µM; TGI (786-0 renal): > 100 µM; TGI (K-562 leukemia): > 100 µM; TGI (MDA-N): > 100 µM; TGI (M14 melanoma): > 100 µM; TGI (OVCAR-4 ovarian): > 100 µM; TGI (SW-620 colon): > 100 µM; TGI (HCC-2998 colon): > 100 µM; TGI (SNB-19 CNS): > 100 µM; TGI (SF-295 CNS): > 100 µM; TGI (CAKI-1 renal): > 100 µM; TGI (SN12C renal): > 100 µM; TGI (TK-10 renal): > 100 µM; TGI (HCT-15 colon): > 100 µM; TGI (OVCAR-5 ovarian): > 100 µM; TGI (NCI-H522 lung): 51.1 µM; TGI (RXF 393 renal): > 100 µM; TGI (HOP-92 NSCLC): 86.6 µM; TGI (HS 578T breast): > 100 µM; TGI (IGROV1 ovarian): > 100 µM; TGI (SNB-75 CNS): > 100 µM; TGI (MDA-MB-231 breast): > 100 µM; TGI (SK-MEL-5 melanoma): 39.5 µM; TGI (OVCAR-3 ovarian): > 100 µM; TGI (MALME-3M melanoma): > 100 µM; TGI (SK-MEL-2 melanoma): > 100 µM; TGI (ACHN renal): > 100 µM; TGI (A549 NSCLC): > 100 µM; TGI (HL-60(TB) leukemia): 67.5 µM; TGI (SR leukemia): > 100 µM; TGI (UACC-62 melanoma): 89.5 µM; TGI (MDA-MB-435): > 100 µM; TGI (UO-31 renal): > 100 µM; TGI (HT29 colon): > 100 µM

Question: With `COc1cccc2c(Nc3ccc(S(=O)(=O)Nc4ncccn4)cc3)c3ccc([N+](=O)[O-])cc3nc12` as the compound, how does the TGI (BT-549 breast) read?
Answer: > 100 µM

Question: And the TGI (SK-MEL-28 melanoma)?
Answer: > 100 µM

Question: And the TGI (COLO 205 colon)?
Answer: > 100 µM

Question: And the TGI (NCI-H460 lung)?
Answer: > 100 µM

Question: And the TGI (MOLT-4 leukemia)?
Answer: 81.2 µM

Question: And the TGI (U251 CNS)?
Answer: > 100 µM

Question: And the TGI (HCT-116 colon)?
Answer: > 100 µM

Question: And the TGI (CCRF-CEM leukemia)?
Answer: > 100 µM

Question: What about the TGI (LOX IMVI melanoma) of the same compound?
Answer: > 100 µM

Question: And the TGI (MCF7 breast)?
Answer: > 100 µM

Question: What about the TGI (RPMI-8226 leukemia) of the same compound?
Answer: > 100 µM

Question: What about the TGI (DU-145 prostate) of the same compound?
Answer: > 100 µM

Question: And the TGI (T-47D breast)?
Answer: > 100 µM

Question: And the TGI (SK-OV-3 ovarian)?
Answer: > 100 µM

Question: And the TGI (SF-539 CNS)?
Answer: > 100 µM

Question: And the TGI (NCI-H226 lung)?
Answer: > 100 µM

Question: What about the TGI (SF-268 CNS) of the same compound?
Answer: > 100 µM

Question: And the TGI (NCI-H23 lung)?
Answer: > 100 µM

Question: What about the TGI (EKVX NSCLC) of the same compound?
Answer: > 100 µM

Question: And the TGI (HOP-62 NSCLC)?
Answer: > 100 µM

Question: What about the TGI (A498 renal) of the same compound?
Answer: > 100 µM

Question: What about the TGI (UACC-257 melanoma) of the same compound?
Answer: > 100 µM

Question: And the TGI (786-0 renal)?
Answer: > 100 µM

Question: What about the TGI (K-562 leukemia) of the same compound?
Answer: > 100 µM

Question: And the TGI (MDA-N)?
Answer: > 100 µM

Question: And the TGI (M14 melanoma)?
Answer: > 100 µM

Question: What about the TGI (OVCAR-4 ovarian) of the same compound?
Answer: > 100 µM

Question: What about the TGI (PC-3 prostate) of the same compound?
Answer: > 100 µM

Question: What about the TGI (SW-620 colon) of the same compound?
Answer: > 100 µM

Question: And the TGI (HCC-2998 colon)?
Answer: > 100 µM

Question: What about the TGI (SNB-19 CNS) of the same compound?
Answer: > 100 µM

Question: What about the TGI (SF-295 CNS) of the same compound?
Answer: > 100 µM

Question: What about the TGI (CAKI-1 renal) of the same compound?
Answer: > 100 µM

Question: And the TGI (KM12 colon)?
Answer: > 100 µM

Question: And the TGI (SN12C renal)?
Answer: > 100 µM

Question: And the TGI (TK-10 renal)?
Answer: > 100 µM

Question: And the TGI (HCT-15 colon)?
Answer: > 100 µM

Question: What about the TGI (OVCAR-5 ovarian) of the same compound?
Answer: > 100 µM

Question: And the TGI (NCI-H522 lung)?
Answer: > 100 µM

Question: And the TGI (RXF 393 renal)?
Answer: > 100 µM

Question: And the TGI (HOP-92 NSCLC)?
Answer: > 100 µM

Question: What about the TGI (HS 578T breast) of the same compound?
Answer: > 100 µM

Question: What about the TGI (IGROV1 ovarian) of the same compound?
Answer: > 100 µM

Question: And the TGI (MDA-MB-231 breast)?
Answer: > 100 µM

Question: And the TGI (SK-MEL-5 melanoma)?
Answer: > 100 µM

Question: And the TGI (OVCAR-3 ovarian)?
Answer: > 100 µM

Question: What about the TGI (MALME-3M melanoma) of the same compound?
Answer: > 100 µM

Question: What about the TGI (SK-MEL-2 melanoma) of the same compound?
Answer: > 100 µM

Question: And the TGI (ACHN renal)?
Answer: > 100 µM

Question: What about the TGI (A549 NSCLC) of the same compound?
Answer: > 100 µM

Question: What about the TGI (HL-60(TB) leukemia) of the same compound?
Answer: 88.6 µM

Question: What about the TGI (SR leukemia) of the same compound?
Answer: 13.9 µM

Question: What about the TGI (UACC-62 melanoma) of the same compound?
Answer: > 100 µM

Question: And the TGI (MDA-MB-435)?
Answer: > 100 µM

Question: And the TGI (UO-31 renal)?
Answer: > 100 µM

Question: What about the TGI (HT29 colon) of the same compound?
Answer: > 100 µM
